Data from patent US8193170B2, “2-methylene-19,26-dinor-(20R,22E,25R)-vitamin D analogs” (Wisconsin Alumni Research Foundation, priority 2008, dated 2012).
Entries after “also recorded” stand apart in the source; their conditions may differ.

What was measured:
[1] = test system: 24-hydroxylase (24Ohase) gene promoter in ROS 17/2.8 (bone) cells; experiment: In vitro transcription assay (24-hydroxylase gene promoter luciferase reporter); assay type: cell-based; settings: for EC50: ROS 17/2.8 cells, 24-hydroxylase promoter-luciferase, FIG. 3, read-out: EC50, transcriptional activity in bone cells
Method: Transcription activity was measured in ROS 17/2.8 (bone) cells that were stably transfected with a 24-hydroxylase (24Ohase) gene promoter upstream of a luciferase reporter gene (Arbour et al., 1998). Cells were given a range of doses. Sixteen hours after dosing the cells were harvested and luciferase activities were measured using a luminometer.
RLU=relative luciferase units.

HL-60 cells = experiment: HL-60 cell differentiation (nitro blue tetrazolium reduction); assay type: cell-based, human; settings: for EC50: differentiation of HL-60 cells into monocytes, FIG. 2
Method: The study drugs were dissolved in ethanol and the concentrations determined using UV spectrophotometry. Serial dilutions were prepared so that a range of drug concentrations could be tested without changing the final concentration of ethanol (≦0.2%) present in the cell cultures.
Human promyelocytic leukemia (HL60) cells were grown in RPMI-1640 medium containing 10% fetal bovine serum. The cells were incubated at 37° C. in the presence of 5% CO2.
HL60 cells were plated at 1.2×10^5 cells/ml. Eighteen hours after plating, cells in duplicate were treated with drug. Four days later, the cells were harvested and a nitro blue tetrazolium reduction assay was performed (Collins et al., 1979; J. Exp. Med. 149:969-974). The percentage of differentiated cells was determined by counting a total of 200 cells and recording the number that contained intracellular black-blue formazan deposits. Verification of differentiation to monocytic cells was determined by measuring phagocytic activity (data not shown).

[2] = Bone calcium mobilization (serum calcium) in vitamin D-deficient rats; assay type: in vivo, rat; settings: rats on 0.02% Ca diet, FIG. 4
Method: (§1) Male, weanling Sprague-Dawley rats were placed on Diet 11 (0.47% Ca) diet+AEK oil for one week followed by Diet 11 (0.02% Ca)+AEK oil for 3 weeks. The rats were then switched to a diet containing 0.47% Ca for one week followed by two weeks on a diet containing 0.02% Ca. Dose administration began during the last week on 0.02% calcium diet. Four consecutive ip doses were given approximately 24 hours apart. Twenty-four hours after the last dose, blood was collected from the severed neck and the concentration of serum calcium determined as a measure of bone calcium mobilization. The first 10 cm of the intestine was also collected for intestinal calcium transport analysis using the everted gut sac method.

[3] = Intestinal calcium transport, everted gut sac method, in vitamin D-deficient rats; assay type: in vivo, rat; settings: FIG. 5
Method: as §1

[4] = target: T1, full-length recombinant rat vitamin D receptor (Rattus norvegicus, UniProt P13053); experiment: Vitamin D receptor competitive binding with [3H]-1,25(OH)2D3
T1 construct: Full-length recombinant rat receptor was expressed in E. coli; histidine tag (C); made in house; host or cells: E. coli BL21 (DE3) Codon Plus RIL
T1 sequence (P13053 1-423): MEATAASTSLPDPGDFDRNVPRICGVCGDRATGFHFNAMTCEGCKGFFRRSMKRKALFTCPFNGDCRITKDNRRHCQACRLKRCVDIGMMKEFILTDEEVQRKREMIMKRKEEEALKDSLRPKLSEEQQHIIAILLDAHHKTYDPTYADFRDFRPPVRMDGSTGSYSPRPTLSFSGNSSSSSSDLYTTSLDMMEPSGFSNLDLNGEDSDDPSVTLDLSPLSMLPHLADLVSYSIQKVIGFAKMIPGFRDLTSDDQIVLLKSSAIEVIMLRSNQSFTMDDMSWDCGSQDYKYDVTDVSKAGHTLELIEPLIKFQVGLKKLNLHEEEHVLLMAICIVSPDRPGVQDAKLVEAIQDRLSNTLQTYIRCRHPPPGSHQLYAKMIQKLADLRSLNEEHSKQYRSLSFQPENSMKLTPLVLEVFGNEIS
Method: Full-length recombinant rat receptor was expressed in E. coli BL21 (DE3) Codon Plus RIL cells and purified to homogeneity using two different column chromatography systems. The first system was a nickel affinity resin that utilizes the C-terminal histidine tag on this protein. The protein that was eluted from this resin was further purified using ion exchange chromatography (S-Sepharose Fast Flow). Aliquots of the purified protein were quick frozen in liquid nitrogen and stored at −80° C. until use. For use in binding assays, the protein was diluted in TEDK50 (50 mM Tris, 1.5 mM EDTA, pH7.4, 5 mM DTT, 150 mM KCl) with 0.1% Chaps detergent. The receptor protein and ligand concentration were optimized such that no more than 20% of the added radiolabeled ligand was bound to the receptor.
Radiolabeled and unlabeled ligands were added to 100 mcl of the diluted protein at a final ethanol concentration of ≦10%, mixed and incubated overnight on ice to reach binding equilibrium. The following day, 100 mcl of hydroxylapatite slurry (50%) was added to each tube and mixed at 10-minute intervals for 30 minutes. The hydroxylapaptite was collected by centrifugation and then washed three times with Tris-EDTA buffer (50 mM Tris, 1.5 mM EDTA, pH 7.4) containing 0.5% Titron X-100. […] Total binding was determined from the tubes containing only radiolabeled ligand.

[5] = 780 pmol/day ip for 4 consecutive days

| Ki ([4]; full-length recombinant rat VDR, FIG. 1, read-out: Ki, competition with [3H]-1,25(OH)2D3 for binding to the vitamin D receptor) [nM] | VDR binding potency relative to 1,25(OH)2D3 (times less potent) ([4]; less potent than 1,25(OH)2D3) | EC50 (HL-60 cells; Homo sapiens) [nM] | SMILES | EC50 [1] [nM] | EC50 (HL-60 cells) [nM] | Bone calcium mobilization (serum calcium) [2, 5] | Serum calcium levels ([2]; all dosages tested) | Transcription activity of the 24-hydroxylase gene relative to 1,25(OH)2D3 (times more) ([1]; more potent than 1,25(OH)2D3, bone cells) | Intestinal calcium transport activity [3, 5] | Intestinal calcium transport, dose dependence ([3]; range of doses) | HL-60 cell differentiation activity relative to 1,25(OH)2D3 (times more) (HL-60 cells; more active than 1,25(OH)2D3) | Bone calcium mobilization (serum calcium) ([2]; 2,340 pmol/day ip for 4 consecutive days) |
| --- | --- | --- | --- | --- | --- | --- | --- | --- | --- | --- | --- | --- |
| – | – | – | C=C1/C(=C\C=C2/CCC[C@]3(C)[C@@H]([C@H](C)CCCC(C)(C)O)CC[C@@H]23)C[C@@H](O)C[C@@H]1O [1,25(OH)2D3, 1α,25-dihydroxyvitamin D3, reference compound] | 0.2 | 2 | significant activity | increased serum calcium levels at all dosages | – | – | – | – | – |
| 0.1 | about 10 times | 0.2 | C=C1[C@H](O)CC(=C/C=C2\CCC[C@]3(C)[C@@H]([C@H](C)/C=C/C[C@@H](C)O)CC[C@@H]23)C[C@H]1O [RR-22, 2-methylene-19,26-dinor-(20R,22E,25R)-1α,25-dihydroxyvitamin D3] | 0.02 | – | – | – | about 10 times | almost the same activity as 1,25(OH)2D3 | promotes intestinal calcium transport in a dose dependent manner | about 10 times | did not result in any mobilization of bone calcium; also recorded: no bone calcium mobilization activity |
